Results on four compounds are retold here after patent publication US9296710B2, “Bicyclo (3.1.0) hexane-2, 6-dicarboxylic acid derivatives as mGlu2 receptor agonist” (Eli Lilly and Company, priority 2011, dated 2016).

The conditions of series [1]: both, human, pH 7.4. Here is the method: Liver S9 fractions are obtained from Xenotech LLC (Lenexa, Mo.). The lot is from a pool of two donors, one male and one female. The liver S9 fraction is prepared and diluted using a homogenization buffer consisting of 50 mM Tris, pH 7.4 at 4° C. and 150 mM potassium chloride without EDTA. Prodrug compounds are incubated in the liver homogenate for 2 hours at 37° C., after which the concentration of compound is determined by LC/MS/MS. Hydrolysis of Clopidogrel to Clopidogrel Carboxylic Acid is utilized as an assay positive control.
Incubations are conducted in 96-well format and all prodrug compounds are run in duplicate on each day. Stock prodrug compound solutions are prepared in water at a concentration of 1 mM. Human liver S9 fraction is diluted to a final protein concentration of 0.5 mg/mL in 100 mM PBS buffer, pH 7.4. […]
LC/MS/MS quantification of compound formed during the incubation is performed on a Sciex API 4000, Analyst version 1.4.2, TURBOIONSPRAY®, positive ionization, and Selected Reaction Monitoring (SRM). […]
Concentrations of hydrolyzed compound in the incubation mixtures are determined from standard curves prepared by replicate two-fold dilution starting at 10 μM in 100 mM PBS pH 7.4 and subsequently quenched with methanol-internal standard solution identical to the samples. Averages and standard deviations are calculated using MICROSOFT® Office EXCEL® 2007. […]

Series [2] relates to stress-induced hyperthermia in rats. Put plainly: Attenuation of Stress-Induced Hyperthermia in Rats. Format: in vivo, rat. Particulars: i.p. The text has this:
In many anxiety disorders, hyperthermia occurs as part of the pathology and is considered a symptom of the disease. Compounds which attenuate stress-induced hyperthermia in animals are believed to be useful in treating anxiety disorders in humans. Generalized anxiety disorder is an example of such disorders that may be treated with such compounds. The conventional and minimally-invasive method for analyzing stress-induced hyperthermia is by measuring body temperature, and stress-induced increases in body temperature, via rectal thermometer. Male Fischer F-344 rats (Harlan, Indianapolis, Ind., USA) weighing between 275-350 g are tested. All animals are individually-housed with food and automated water available ad libitum, and maintained on a 12 h light/dark cycle (lights on at 06:00) Animals are fasted for approximately 12-18 hours before the experiment, which is conducted during the light phase. Rats are dosed one hour prior to the experiment by intraperitoneal (i.p.) route of administration in a dose volume of 1 mL/kg. The vehicle used was water with enough NaOH added to achieve a pH between 5-7. The mGluR5 antagonist MTEP (3-[(2-methyl-1,3-thiazol-4-yl)ethynyl]pyridine) and mGlu2/3 agonist LY317206 were used as quality controls, given that they produced reliable efficacy in this model Immediately following dosing, rats are returned to their home cage, and the experimenter turns off the lights and leaves the room. The dosing room is darkened for the remainder of the 1-hr pretreatment period.
After the pretreatment period, rats are taken individually to a brightly lit adjacent room where baseline body temperatures are determined by insertion of a rectal probe lubricated with mineral oil. Body temperature is assessed using a […] BAT-12® Microprobe Thermometer with a […] RET-2® rat rectal probe (Physitemp Instruments Inc., Clifton, N.J., USA). The probe is inserted approximately 2 cm into the rectum, to measure the core body temperature (this is the baseline body temperature, T1, in degrees Celsius). Ten minutes later a second body temperature measurement is recorded (T2). […]

Series [3] concerns PCP-induced hyperlocomotor activity in rats. Nature of the series: Reversal of Phencyclidine (PCP)-Induced Hyperlocomotor Activity in Rats. To be noted: Rattus norvegicus. Format: in vivo. The text has this:
Administration of NMDA receptor antagonists, such as ketamine or phencyclidine (PCP), produces psychotomimetic-like effects in humans that are similar to those symptoms observed in patients with schizophrenia.
Motor activity is monitored by placing individual male, Sprague-Dawley (Harlan, Indianapolis, Ind.) rats in transparent, plastic shoe-box cages of the dimensions 45×25×20 cm, with 1 cm depth of wood chips as bedding, and a metal grill on top of the cage. Motor monitors (Kinder Scientific) consist of a rectangular rack of 12 photobeams arranged in an 8×4 formation, (or a high density grouping of 22 in a 15×7 pattern) at a height of 5 cm, with a second rack (for measuring rearing behaviors) at a height of 15 cm. The shoe box cage is placed inside of these racks, with the racks on a 3 foot high tabletop in an isolated room. […] On the test day, rats are placed in the test cage and allowed to acclimate for 30 minutes prior to PCP challenge; rats are monitored for an additional 60 minutes following PCP administration.
Data analysis and ED50 calculations are conducted using GraphPad PRISM® (San Diego, Calif. USA). Power analyses have determined that 8-10 rats per group are needed to have appropriate statistical power for detecting treatment differences (power=0.8). […]

The next series concerns the target T1, human mGlu2 receptor (Homo sapiens, UniProt Q14416).
T1 construct: expressed in transfected cells; host or cells: AV-12 cells (Syrian hamster fibroblasts), co-transfected with rat EAAT1 and Galpha15
Put plainly: Human mGlu2 Agonist FLIPR Assay. Format: cell-based. The text has this:
AV-12 cell lines, derived from Syrian Hamster fibroblasts and stably expressing the human mGlu2 receptor and co-transfected with the rat glutamate transporter EAAT 1 (Excitatory Amino Acid Transporter 1) and the Gα15 subunit, are used for these studies. The expression of Gα15 allows Gi-coupled receptors to signal through the phospholipase C pathway, resulting in the ability to measure receptor activation by a fluorometric calcium response assay. The cell lines are maintained by culturing in Dulbecco's Modified Eagle's Medium (DMEM) with high glucose and pyridoxine hydrochloride supplemented with 5% dialyzed fetal bovine serum, 1 mM sodium pyruvate, 10 mM HEPES [4-(2-hydroxyethyl)-1-piperazineethanesulfonic acid], 1 mM of L-glutamine, and 5 μg/mL blasticidin (all media are purchased from Invitrogen). Confluent cultures are passaged biweekly using an enzyme-free dissociation solution (Chemicon S-004-B).
Intracellular calcium levels are monitored before and after the addition of compounds using a Fluorometric Imaging Plate Reader (FLIPR®, Molecular Devices). The assay buffer is comprised of Hank's Buffered Salt Solution (HBSS; Sigma) supplemented with 20 mM HEPES. […] The dye solution is removed and replaced with fresh assay buffer (50 μL per well). […] Results are analyzed using PRISM® v4.03 (GraphPad Software). […] Exemplified compounds of the present invention are solubilized as 10 mM stocks in 0.1N NaOH and stored at −20 C. They are diluted through a three-fold dilution series into assay buffer. After taking an initial 5-sec fluorescent read on the FLIPR® instrument, a compound of the present invention is added to the cell plate (50 μL per well). Data are collected every second for the first 30 seconds and then every 3 seconds for a total of 90 seconds in order to detect agonist activity. The maximal response is defined as that induced by ECmax (100 μM glutamate). The compound effect is measured as maximal minus minimal peak heights in relative fluorescent units (RFUs) corrected for basal fluorescence measured in the absence of glutamate. Determinations are carried out using single plates. Agonist effects are quantified as percent stimulation induced by compound alone relative to the maximal glutamate response. All data are calculated as relative EC50 values using a four-parameter logistic curve fitting program (ACTIVITY BASE® v5.3.1.22).

T1 sequence (Q14416 19-872): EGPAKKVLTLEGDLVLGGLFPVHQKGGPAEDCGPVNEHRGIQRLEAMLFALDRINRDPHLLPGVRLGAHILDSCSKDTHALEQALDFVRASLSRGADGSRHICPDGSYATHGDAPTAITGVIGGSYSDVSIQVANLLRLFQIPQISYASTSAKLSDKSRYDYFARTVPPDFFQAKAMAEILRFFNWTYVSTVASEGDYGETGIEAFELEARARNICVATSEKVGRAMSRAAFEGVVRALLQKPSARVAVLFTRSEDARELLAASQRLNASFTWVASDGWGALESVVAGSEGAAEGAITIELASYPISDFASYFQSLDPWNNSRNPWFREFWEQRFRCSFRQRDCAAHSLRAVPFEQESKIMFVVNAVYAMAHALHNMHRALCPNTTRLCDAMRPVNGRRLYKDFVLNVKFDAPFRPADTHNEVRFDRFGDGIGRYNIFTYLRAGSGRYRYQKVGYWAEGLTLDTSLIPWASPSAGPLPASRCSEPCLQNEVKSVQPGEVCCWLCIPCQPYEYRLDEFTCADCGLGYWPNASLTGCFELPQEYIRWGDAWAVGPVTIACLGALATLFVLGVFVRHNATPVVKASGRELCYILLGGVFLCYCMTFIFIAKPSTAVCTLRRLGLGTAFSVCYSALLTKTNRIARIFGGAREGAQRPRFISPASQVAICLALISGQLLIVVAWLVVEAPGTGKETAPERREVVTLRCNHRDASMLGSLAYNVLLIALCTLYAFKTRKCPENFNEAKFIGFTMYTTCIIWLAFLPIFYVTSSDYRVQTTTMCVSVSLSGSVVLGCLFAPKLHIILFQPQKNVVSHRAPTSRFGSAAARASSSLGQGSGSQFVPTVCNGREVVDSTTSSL

On to `COC(=O)[C@H](c1ccccc1Cl)N1CCc2sccc2C1` [Clopidogrel], for which, in series [1], the “Hydrolysis of Clopidogrel to Clopidogrel Carboxylic Acid (positive control)” value came to 73.0%.

A word on the ED50: it is the midpoint of the dose-response relation. A word on the EC50: it is the concentration at which the effect is half-maximal. Take `N[C@@]1(C(=O)O)C[C@H](Sc2nc[nH]n2)[C@H]2[C@H](C(=O)O)[C@H]21` [Example 10, (1R,2S,4S,5R,6R)-2-amino-4-(1H-1,2,4-triazol-3-ylsulfanyl)bicyclo[3.1.0]hexane-2,6-dicarboxylic acid]: the “maximal reduction of stress-induced hyperthermia” value in series [2] (at 10 mg/kg) was found to be 75%. Also, the “T35 (dose producing 35% reduction in stress-induced hyperthermic response)” value in series [2] (one hour pretreatment) was 1.7 mg/kg. Further, in series [3] (i.p. administration, 30 minutes prior to 5 mg/kg PCP), the ED50 was found to be 0.9 mg/kg. Also, the half-maximal effective concentration (EC50) on human mGlu2 receptor (hMGLUR2 FLIPR assay, AV-12 cells expressing human mGlu2, calcium response, read-out: Relative EC50) came to 69.1 nM. Also, the Emax on human mGlu2 receptor (percent stimulation relative to maximal glutamate response (100 μM glutamate), read-out: Relative % Efficacy) was found to be 89%.

Take `CSCC[C@H](N)C(=O)N[C@@]1(C(=O)O)C[C@H](Sc2nnc[nH]2)[C@H]2[C@H](C(=O)O)[C@H]21.Cl` [Example 25, (1R,2S,4S,5R,6R)-2-(L-methionylamino)-4-(4H-1,2,4-triazol-3-ylsulfanyl) bicyclo[3.1.0] hexane-2,6-dicarboxylic acid hydrochloride]: the ED50 in series [3] (oral administration (prodrug), overnight fasted, 4 hours prior to 5 mg/kg PCP) stood at 6.4 mg/kg.

Consider `Cc1nc(C#Cc2cccnc2)cs1` [MTEP, 3-[(2-methyl-1,3-thiazol-4-yl)ethynyl]pyridine, reference compound], for which, in series [2] (3 mg/kg), the “reduction of stress-induced hyperthermia” value is reported as 53%.
